The source of these data is patent US20240270750A1, “IMIDAZOLE-CONTAINING INHIBITORS OF ALK2 KINASE” (BioCryst Pharmaceuticals, Inc., priority 2021, published 2024).

For this test, the target named is T1, ALK2 (Homo sapiens, UniProt Q04771).
T1 construct: purchased ThermoFisher Scientific (Life Technologies)
T1 sequence (Q04771 21-509): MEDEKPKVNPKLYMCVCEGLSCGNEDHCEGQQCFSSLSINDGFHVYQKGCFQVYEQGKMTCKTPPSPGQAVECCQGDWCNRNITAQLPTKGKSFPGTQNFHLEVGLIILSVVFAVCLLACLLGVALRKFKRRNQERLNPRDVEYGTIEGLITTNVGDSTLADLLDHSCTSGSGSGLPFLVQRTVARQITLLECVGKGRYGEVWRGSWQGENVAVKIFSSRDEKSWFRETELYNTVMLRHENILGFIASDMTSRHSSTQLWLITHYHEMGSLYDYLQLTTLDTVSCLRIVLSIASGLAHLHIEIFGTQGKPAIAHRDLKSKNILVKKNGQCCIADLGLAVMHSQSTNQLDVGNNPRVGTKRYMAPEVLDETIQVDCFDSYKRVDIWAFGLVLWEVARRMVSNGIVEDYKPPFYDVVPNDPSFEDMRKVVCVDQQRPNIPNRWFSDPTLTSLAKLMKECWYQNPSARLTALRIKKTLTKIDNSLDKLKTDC
Description: LanthaScreen Eu Kinase Binding Assay, ALK2 inhibition. Particulars: 1 micromolar concentration. As to the method:
Biochemical assays to measure the inhibitory effects of the compounds were performed by ThermoFisher Scientific (Life Technologies). ALK2 inhibition was tested using LanthaScreen™ Eu Kinase Binding Assay screening protocol.

For the compound `COc1cc(-n2cnc(Nc3nc(C(C)C)nc4c3CCNC4)c2)cc(OC)c1OC` [Compound 86a, 2-isopropyl-N-(1-(3,4,5-trimethoxyphenyl)-1H-imidazol-4-yl)-5,6,7,8-tetrahydropyrido[3,4-d]pyrimidin-4-amine], the inhibition at 1 µM is greater than 50%.

The compound `COc1cc(-n2cnc(Nc3nc(C4CC4)nc4c3cnn4C(C)C)c2)cc(OC)c1OC` [Compound 7e, 6-cyclopropyl-1-isopropyl-N-(1-(3,4,5-trimethoxyphenyl)-1H-imidazol-4-yl)-1H-pyrazolo[3,4-d]pyrimidin-4-amine] yielded an inhibition at 1 µM greater than 50%.

As to `C=C(C)c1nc(Nc2cn(-c3cc(OC)c(OC)c(OC)c3)cn2)nc2ccccc12` [Compound 55c, 4-(prop-1-en-2-yl)-N-(1-(3,4,5-trimethoxyphenyl)-1H-imidazol-4-yl)quinazolin-2-amine], the inhibition at 1 µM is greater than 50%.

The compound `COc1cc(-n2cnc(Nc3nc(C4CCCCC4)c4cnn(C(C)C)c4n3)c2)cc(OC)c1OC` [Compound 12b, 4-cyclohexyl-1-isopropyl-N-(1-(3,4,5-trimethoxyphenyl)-1H-imidazol-4-yl)-1H-pyrazolo[3,4-d]pyrimidin-6-amine] had an inhibition at 1 µM greater than 50%.

Consider `COc1cc(-n2cnc(Nc3cc(C4CC4)nc4c(C(C)C)cnn34)c2)cc(OC)c1OC` [Compound 110d, 5-cyclopropyl-3-isopropyl-N-(1-(3,4,5-trimethoxyphenyl)-1H-imidazol-4-yl)pyrazolo[1,5-a]pyrimidin-7-amine], for which the inhibition at 1 µM is less than 50%.

Take `COc1cc(-n2cnc(Nc3nc(C(C)C)nc4c3cnn4C3CCOC3)c2)cc(OC)c1OC` (centres unmarked) [Compound 21c, 6-isopropyl-1-(tetrahydrofuran-3-yl)-N-(1-(3,4,5-trimethoxyphenyl)-1H-imidazol-4-yl)-1H-pyrazolo[3,4-d]pyrimidin-4-amine]: the inhibition at 1 µM was greater than 50%.

On to `COc1cc(-n2cnc(Nc3nc(C(C)C)nc4scnc34)c2)cc(OC)c1OC` [Compound 93a, 5-isopropyl-N-(1-(3,4,5-trimethoxyphenyl)-1H-imidazol-4-yl)thiazolo[5,4-d]pyrimidin-7-amine], for which the inhibition at 1 µM was greater than 50%.

`COc1cc(-n2cnc(Nc3nc(C(C)CCO)nc4c3cnn4C(C)C)c2)cc(OC)c1OC` (centres unmarked) [Compound 49b, 3-(1-isopropyl-4-((1-(3,4,5-trimethoxyphenyl)-1H-imidazol-4-yl)amino)-1H-pyrazolo[3,4-d]pyrimidin-6-yl)butan-1-ol] showed an inhibition at 1 µM greater than 50%.

Consider `COc1cc(-n2cnc(Nc3nc(C(C)C)nc4sccc34)c2)cc(OC)c1OC` [Compound 81a, 2-isopropyl-N-(1-(3,4,5-trimethoxyphenyl)-1H-imidazol-4-yl)thieno[2,3-d]pyrimidin-4-amine], for which the inhibition at 1 µM is greater than 50%.

As for `COc1cc(-n2cnc(Nc3nc(C(C)C)nc4ccccc34)c2)cc(OC)c1OC` [Compound 73a, 2-isopropyl-N-(1-(3,4,5-trimethoxyphenyl)-1H-imidazol-4-yl)quinazolin-4-amine], the inhibition at 1 µM was greater than 50%.

Compound `C=C(C)c1nc(Nc2cn(-c3cc(OC)c(OC)c(OC)c3)cn2)c2ncn(C(C)C)c2n1` [Compound 74c, 9-isopropyl-2-(prop-1-en-2-yl)-N-(1-(3,4,5-trimethoxyphenyl)-1H-imidazol-4-yl)-9H-purin-6-amine] returned an inhibition at 1 µM greater than 50%.

As to `COc1cc(-n2cnc(Nc3nc(C4CCN(C)C4)nc4c3cnn4C(C)C)c2)cc(OC)c1OC` (centres unmarked) [Compound 101b, 1-isopropyl-6-(1-methylpyrrolidin-3-yl)-N-(1-(3,4,5-trimethoxyphenyl)-1H-imidazol-4-yl)-1H-pyrazolo[3,4-d]pyrimidin-4-amine], the inhibition at 1 µM was greater than 50%.

`COc1cc(-n2cnc(Nc3nc(C(C)CC(=O)O)nc4c3cnn4C(C)C)c2)cc(OC)c1OC` (centres unmarked) [Compound 106a, 3-(1-isopropyl-4-((1-(3,4,5-trimethoxyphenyl)-1H-imidazol-4-yl)amino)-1H-pyrazolo[3,4-d]pyrimidin-6-yl)butanoic acid] gave an inhibition at 1 µM greater than 50%.

Compound `COc1cc(-n2cnc(Nc3nc(C(C)C)nc4c3CCCC4)c2)cc(OC)c1OC` [Compound 89a, 2-isopropyl-N-(1-(3,4,5-trimethoxyphenyl)-1H-imidazol-4-yl)-5,6,7,8-tetrahydroquinazolin-4-amine] displayed an inhibition at 1 µM greater than 50%.

Compound `COc1cc(-n2cnc(Nc3nc(CC(C)C)nc4c3CCC4c3ccccc3)c2)cc(OC)c1OC` (centres unmarked) [Compound 46d, 2-isobutyl-7-phenyl-N-(1-(3,4,5-trimethoxyphenyl)-1H-imidazol-4-yl)-6,7-dihydro-5H-cyclopenta[d]pyrimidin-4-amine] gave an inhibition at 1 µM greater than 50%.

In turn, `COc1cc(-n2cnc(Nc3nc(C4CC4)nc4c3CCC4)c2)cc(OC)c1OC` [Compound 115b, 2-cyclopropyl-N-(1-(3,4,5-trimethoxyphenyl)-1H-imidazol-4-yl)-6,7-dihydro-5H-cyclopenta[d]pyrimidin-4-amine] displayed an inhibition at 1 µM greater than 50%.

`COc1cc(-n2cnc(Nc3nc(C(C)CCN(C)C)nc4c3cnn4C(C)C)c2)cc(OC)c1OC` (centres unmarked) [Compound 100b, 6-(4-(dimethylamino)butan-2-yl)-1-isopropyl-N-(1-(3,4,5-trimethoxyphenyl)-1H-imidazol-4-yl)-1H-pyrazolo[3,4-d]pyrimidin-4-amine] displayed an inhibition at 1 µM greater than 50%.

As for `C=C(C)c1nc(Nc2cn(-c3cc(OC)c(OC)c(OC)c3)cn2)c2ncsc2n1` [Compound 63c, 5-(prop-1-en-2-yl)-N-(1-(3,4,5-trimethoxyphenyl)-1H-imidazol-4-yl)thiazolo[5,4-d]pyrimidin-7-amine], the inhibition at 1 µM was greater than 50%.

`COc1cc(-n2cnc(Nc3nc(C4CC4)nc4c3cnn4CC3CC3)c2)cc(OC)c1OC` [Compound 120f, 6-cyclopropyl-1-(cyclopropylmethyl)-N-(1-(3,4,5-trimethoxyphenyl)-1H-imidazol-4-yl)-1H-pyrazolo[3,4-d]pyrimidin-4-amine]: the inhibition at 1 µM was greater than 50%.

As to `COc1cc(-n2cnc(Nc3nc(C(C)C)nc4c3COC4)c2)cc(OC)c1OC` [Compound 72a, 2-isopropyl-N-(1-(3,4,5-trimethoxyphenyl)-1H-imidazol-4-yl)-5,7-dihydrofuro[3,4-d]pyrimidin-4-amine], the inhibition at 1 µM was greater than 50%.

The compound `COc1cc(-n2cnc(Nc3nc(CC4CC4)nc4c3cnn4C3CC3)c2)cc(OC)c1OC` [Compound 122e, 1-cyclopropyl-6-(cyclopropylmethyl)-N-(1-(3,4,5-trimethoxyphenyl)-1H-imidazol-4-yl)-1H-pyrazolo[3,4-d]pyrimidin-4-amine] registered an inhibition at 1 µM greater than 50%.

`COc1cc(-n2cnc(Nc3nc(C4CC4)nc4c3cnn4CC(C)C)c2)cc(OC)c1OC` [Compound 117e, 6-cyclopropyl-1-isobutyl-N-(1-(3,4,5-trimethoxyphenyl)-1H-imidazol-4-yl)-1H-pyrazolo[3,4-d]pyrimidin-4-amine] showed an inhibition at 1 µM greater than 50%.

For the compound `CCCC(C)c1nc(Nc2cn(-c3cc(OC)c(OC)c(OC)c3)cn2)c2cnn(C(C)C)c2n1` (centres unmarked) [Compound 29a, 1-isopropyl-6-(pentan-2-yl)-N-(1-(3,4,5-trimethoxyphenyl)-1H-imidazol-4-yl)-1H-pyrazolo[3,4-d]pyrimidin-4-amine], the inhibition at 1 µM is greater than 50%.
